Values of other authors, collected in patent publication US20230165893A1, “TREATMENT OF VIRAL INFECTIONS” (SULFAGENIX, INC., priority 2020, published 2023).

Details: pure elemental sulfur, stated as a contrast, no source given

solubility in carbon disulfide (in words): completely soluble
SMILES: S1SSSSSSS1 [alpha-elemental sulfur, elemental alpha sulfur]
